The test system of test [1] is COLO 320DM cells. In words: Quantification of c-myc+ (DM-containing) micronuclei in COLO 320DM cells by FISH. It is filed as cell-based, human. The conditions noted are these: for micronucleation (frequency of c-myc+ micronuclei): COLO 320DM cells treated for 3 days; for micronucleation efficiency at concentrations that severely inhibited S-phase: COLO 320DM cells, 3 days, high drug concentrations. Here is the method:
(§1) FIGS. 3A and 3B show the effects of various drugs on induction of micronuclei and cell cycle distribution. COLO 320DM cells were treated for 3 days with inhibitors of DNA replication (aphidicolin (“APH”); deferoxamine (“Def”), guanazole (“Gua”); hydroxurea (“HU”); and PALA), repair (coumarin (“Cou”); nicotinamide (“NA”)) or the membrane active agent DMSO at the concentrations indicated. In FIG. 3A, the treated cells were fixed with methanol/acetic acid and hybridized with c-myc cosmid probe. The numbers of micronuclei that were stained brightly with c-myc probe were scored and expressed as “frequency of c-myc^+ micronuclei (%)” relative to the number of interphase nuclei scored (more than 1000 for each point). In FIG. 3B, the cells were pulse-labeled with BrdU (for 30 min) at the end of the drug treatment, and analyzed by flow cytometry as described below to determine the fraction of cells in G1, S, and G2/M.
Micronuclei containing DM sequences in COLO 320DM cells (FIGS. 2 and 3) were detected by preparing chromosome spreads using standard hypotonic swelling conditions (Lawce and Brown (1991)), followed by hybridization with a biotinylated c-myc cosmid probe as described previously (Shimizu, et al. (1996)). Total micronuclei (FIG. 3) were determined by staining chromosome spreads with DAPI (Sigma; 1 μg/ml in VectaShield, Vector Inc.). The adherent cells (WS1, RPE-h and their derivatives) were grown on cover slips, fixed with cold acetone (−20° C. for 5 min) followed by cold methanol (−20° C. for 5 min), re-hydrated with PBS and stained with DAPI (1 μg/ml in VectaShield). The numbers of total or DM-enriched micronuclei were scored using 60× or 100× objectives and Zeiss fluorescence microscope equipped with appropriate epifluorescence filters. The results are expressed as “Frequency of micronuclei (%)” relative to the number of interphase nuclei scored (at least 1000 for each point).

Test [2] concerns WS1 E6 cells. The test can be described thus: Frequency of micronuclei (DAPI) in WS1 E6 fibroblasts. It is filed as cell-based, human. The conditions noted are these: WS1 fibroblasts expressing E6, drug for 3 days. Here is the method: (§2) Wild type (wt) WS1 human diploid fibroblasts, or transformants expressing the neomycin resistance gene (neo) or both neo and the human papilloma virus E6 protein (E6) were generated by retroviral transduction. These cells were cultured in the absence or the presence of HU or PALA at the indicated concentrations for 3 days. […] The number of micronuclei were scored and expressed as the frequency of micronuclei (%) relative to the number of interphase nuclei scored (more than 1000 for each point). In FIG. 7B, cell cycle effects of these drugs were examined as in FIG. 2B. […] In FIG. 7C, progression through S-phase or M-phase was monitored by the incorporation of [^3H]thymidine (closed symbols) or the fraction of mitotic cells determined by microscopic detection of metaphase figures (open symbols). In FIG. 7D, the cells on the cover slips were fixed, stained with DAPI, and the frequencies of micronuclei relative to the number of interphase nuclei were scored. More than 500 nuclei were counted for each point and the results are expressed as mean±S.D for WS1 neo and WS1-E6 cells (3 independent determinations for each strain; the error bars for WS1 neo data points were smaller than the sizes of the symbols). Nuclear budding frequencies were determined on the same slides as used to determine micronucleation index (more than 1000 nuclei for each point). […]

The test system of test [3] is WS1 human diploid fibroblasts. In words: Frequency of micronuclei (DAPI) in WS1 normal diploid fibroblasts. It is filed as cell-based. The conditions noted are these: WS1 cells, drug for 3 days. As for the experimental part: as §2
In test [4] the test system is human and rodent cell lines. The conditions noted are these: cited from earlier work.
For test [5], the system named is WS1 E6 cells. In words: Cell cycle distribution of WS1 E6 fibroblasts by flow cytometry. Type of test: cell-based, human. The conditions noted are these: WS1 fibroblasts expressing E6, drug for 3 days. As for the experimental part: as §2
Test [6] has as its system WS1 human diploid fibroblasts. The test can be described thus: Cell cycle distribution of WS1 fibroblasts by flow cytometry. The conditions noted are these: WS1 cells, drug for 3 days. Type of test: cell-based. As for the experimental part:
as §2

Test [7] has as its system COLO 320DM cells. In words: Localization of DMs in interphase nuclei by FISH and confocal microscopy. It is filed as cell-based, human. The conditions noted are these: 100 μM HU for 3 days. Here is the method: Preparation of probe from purified micronuclei was as described (Shimizu, et al. (1996)), except that DNA in the purified micronuclei was directly used for biotin-labeling by using BioPrime DNA Labeling System (Life Technologies Inc. Gaithersburg, Md.). FISH using standard methanol/acetic acid-fixed nuclei was performed as described previously (Shimizu, et al. (1996)). Assessments of DM localization by confocal microscopy required the following procedure to preserve the spherical shape of the nuclei. This protocol, based on that developed for human lymphocytes (Ferguson and Ward (1992) and Vourc'h, et al. (1993)), could not be applied directly to COLO 320DM due to severe nuclear aggregation. The modified procedure involves pelleting 10 ml of COLO 320DM cells by centrifugation at 260×g for 5 min, followed by complete removal of the supernatant. […] The acquired digital images were expressed as pseudocolors, and merged using Adobe Photoshop (Adobe Systems Inc., Mountain View, Calif.).
The locations of DMs in confocal nuclear sections were determined by measuring the distance from each of the hybridized signals to the center of the nucleus using the corresponding nuclear diameter as a unit length. […] The distances from this dot to the center of the nucleus and the nuclear diameter were determined. […] At the same time, the intensity of each signal was measured using an arbitrary unit scale. […]

The subject of test [8] is COLO 320DM cells. The test can be described thus: Apoptosis in COLO 320DM cells (TUNEL assay). It is filed as cell-based, human. The conditions noted are these: COLO 320DM cultures, prolonged incubation. Here is the method: TUNEL assay was done according to a previously published procedure (Gavrieli, et al. (1992)) and modified as described below. In brief, COLO 320DM cells were fixed in 2% PFA (10 min at room temperature), and centrifuged onto a glass slide using a cytospin apparatus. The cells were further fixed in cold methanol (−20° C., 5 min) followed by cold acetone (−20° C., 5 min). The slides were rehydrated in PBS, then equilibrated in reaction buffer (200 mM sodium cacodylate, 1 mM MgCl2, 1 mM β-mercaptoethanol, pH 7.2) for 15 min at room temperature. The end-labeling reaction was done by incubating the slides with the reaction buffer containing 10 μM biotin-dUTP (Boehringer Mannheim GmbH, Germany), and 0.3 units/μl of terminal deoxynucleotidyl transferase (Toyobo Co., Osaka, Japan), for 60 min at 37° C. The slides were washed extensively, blocked with 20% FCS, and the incorporated biotin was detected using FITC conjugated streptavidin as in the protocol for FISH (see below). The slides were treated with RNAse A (100 μg/ml 37° C., for 20 min), counterstained with PI, and observed under the conditions used for FISH.

For test [9], the system named is COLO 320DM cells. In words: DM content per cell by competitive PCR amplification. The conditions noted are these: HU treatment, data not shown. It is filed as cell-based, human.
In test [10] the test system is COLO 320DM cells. The test can be described thus: Cell cycle distribution of COLO 320DM cells by BrdU/PI flow cytometry. The conditions noted are these: COLO 320DM cells treated for 3 days. It is filed as cell-based, human. As for the experimental part: as §1
Cell cycle distribution was analyzed using flow cytometry as described previously (Yin, et al. (1992) and Di Leonardo, et al. (1994)). Cells treated with the indicated concentrations of drugs for the indicated times were labeled with 10 μM BrdU for 30 min. […] Samples were analyzed using a Becton Dickinson FACScan. […] Data was analyzed using Sun Display as described previously (Yin, et al. (1992) and Di Leonardo, et al. (1994)).
In general terms: A flow cytometer gives signals particle by particle.

Entries after “also recorded” stand apart in the source; their conditions may differ. Structures can show the parent of a compound that is named as a salt.

On to `O=c1ccc2ccccc2o1` [Coumarin, 1,2-benzopyrone], for which, in the test on COLO 320DM cells [1], the “micronucleation (frequency of c-myc+ micronuclei)” value is on record as “no effect on micronucleation”.
On to `NC(=O)NO` [HU, hydroxyurea], for which the figures for the micronucleation rate entry (in the test with WS1 E6 cells [2]; in test [3]) were “substantial further increase in micronucleation rate” and “not increased”, respectively. Besides, the “loss rate of DMs” value in test [4] (human and rodent cell lines) was “significantly increase the loss rate of DMs”. Also, the “number of cells in S-phase” value in the test on WS1 E6 cells [5] is “significant increase in the number of cells in S-phase”. The cell cycle effect entry in [6] is given as “did not significantly affect the percentage of WS1 cells in S-phase”. Further, the “micronucleation (frequency of c-myc+ micronuclei)” value with COLO 320DM cells [1] was “substantial increases in micronucleation”. Besides, the “nuclear position of DMs (peripheral localization)” value in the test with COLO 320DM cells [7] was “preferentially depleted DMs from the nuclear periphery; also recorded: Very few peripheral DMs were detected”. Further, the apoptosis result with COLO 320DM cells [8] is “apoptotic cells did arise”. Besides, the “reduction of DM content per cell” value in the test on COLO 320DM cells [9] is “approximately 3 fold”.
Consider `CC(=O)N(O)CCCCCNC(=O)CCC(=O)N(O)CCCCCNC(=O)CCC(=O)N(O)CCCCCN` [deferoxamine, deferoxamine mesylate], for which, in the test with COLO 320DM cells [1], the “micronucleation (frequency of c-myc+ micronuclei)” value was “substantial increases in micronucleation” and the “micronucleation efficiency at concentrations that severely inhibited S-phase” value is recorded as “sharp decrease in micronucleation efficiency”.
Take `O=C(O)C[C@H](NC(=O)CP(=O)(O)O)C(=O)O` [PALA, N-phosphonacetyl-L-aspartate]: the micronucleation rate result in the test with WS1 E6 cells [2] was “substantial further increase in micronucleation rate”. The micronucleation rate result in test [3] is given as “not increased”. In the test with WS1 E6 cells [5], the “number of cells in S-phase” value is listed as “significant increase in the number of cells in S-phase”. The cell cycle effect entry in test [6] was “induced a G1 cell cycle arrest”. For the same compound, in the test on COLO 320DM cells [1], the “micronucleation (frequency of c-myc+ micronuclei)” value was “substantial increases in micronucleation; also recorded: induces S-phase micronucleation” and the “micronucleation efficiency at concentrations that severely inhibited S-phase” value is listed as “sharp decrease in micronucleation efficiency”.
With `NC(=O)c1cccnc1` [nicotinamide], the “cell cycle distribution (fraction of cells in G1, S, G2/M)” value in the test on COLO 320DM cells [10] is reported as “significant increase in the G2 fraction”. For the same compound, in the test on COLO 320DM cells [1], the “micronucleation (frequency of c-myc+ micronuclei)” value was “small increase”.
Consider `C[S+](C)[O-]` [DMSO], for which, in [4] (some tumor cell lines), the DM copy number result was “reduce DM copy number”. For the same compound, in the test with COLO 320DM cells [10], the “cell cycle distribution (fraction of cells in G1, S, G2/M)” value is recorded as “without lengthening S-phase”. Also, the “micronucleation (frequency of c-myc+ micronuclei)” value in the test with COLO 320DM cells [1] was “increased micronucleation”.
As for `Nc1n[nH]c(N)n1` [guanazole, 3,5-diamino-1,2,4-triazole], in the test on COLO 320DM cells [1], the “micronucleation (frequency of c-myc+ micronuclei)” value was “substantial increases in micronucleation”.
On to `C[C@@]1(CO)[C@H](O)CC[C@@]2(C)[C@H]1CC[C@H]1C[C@@H]3C[C@@]12CC[C@]3(O)CO` [aphidicolin, Aphidicolin], for which the “micronucleation (frequency of c-myc+ micronuclei)” value with COLO 320DM cells [1] is listed as “substantial increases in micronucleation”.

Source of the values: US6946259B2, “Compositions and methods for treating cells having double minute DNA” (The Salk Institute For Biological Studies, priority 1998, dated 2005).
